Among the data in publication PMC12505902, “Inhibitors of trehalose-6-phosphate synthase activity in fungal pathogens compromise thermal tolerance pathways” (mBio, 2025) are MIC80 and inhibition values, retold here.

One assay has as its system C. glabrata (CBS138). Kind of assay: MIC dose-response assay in YPD. Format: cell-based. Here is the method:
Fig 4 4456dh inhibits the growth of Candida and Cryptococcus species. […] 4456dh was administered at the concentrations indicated. Cultures were grown in YPD at the listed temperatures for 48 hours for Candida species and 72 hours for Cryptococcus species. Experimental temperatures reflect the temperatures at which the fungi experience heat stress. Left: relative growth of treated samples was calculated by averaging technical triplicates and normalizing the OD600 of each treated well to the average OD600 of the untreated WT controls, after the absorbance due to the compound was subtracted. The MIC80 values, calculated based on the OD600 values, are indicated in the white text on each heat map. Right: representative spot assays show the ability of cells to grow after exposure to 4456dh and indicate fungicidal activity of 4456dh. […]
Furthermore, there was significant fungicidal activity of 4456dh on C. glabrata in concentrations starting at approximately 7.8 µM (Fig. 4B).
77 and 5 mM imidazole. The protein was eluted with increasing amounts of imidazole in the wash
78 buffer. The fractions containing 6xHis-CnTps1 were pooled, reduced to 5 mL and purified further
79 using S200 size exclusion column chromatography (HiLoad 26/600 Superdex 200pg, Cytiva) […]
(§1) 82 determined by SDS-PAGE analysis, were pooled and concentrated to 1 mg/mL for downstream […]
(§2) 93 The data were acquired with MO.Control 1.5.3 (NanoTemper Technologies GmbH). Recorded
(§3) 94 data were analyzed with MO.Affinity Analysis 2.2.7 (NanoTemper Technologies GmbH). […]
(§4) 100 2X Glo-melt dye. Thermal denaturation was measured using an RT-PCR thermocycler (BioRad) […]
(§5) 102 determined by identifying the inflection point of the derivative data. […]
104 The catalytic activity of C. albicans Tps1 and C. neoformans Tps1 was measured via a continuous […]
110 bottomed 96-well microtiter plates and the decrease in absorbance at 340 nm during the initial
111 reaction rate was recorded using a plate reader (Tecan). The decrease in absorbance was
112 analyzed for the first 200s of the kinetic reaction. […]

The target in the next assay is 6xHis-CnTps1 (Cryptococcus neoformans var. grubii, UniProt J9VJZ1). Kind of assay: Spectrophotometric-coupled Tps1 enzyme activity assay. Format: biochemical, C. neoformans. To be noted: 1 mM 4456dh. As for the experimental part:
Fig 2 4456dh binds Tps1 and inhibits Tps1 activity. (A) Structure of 4456dh. (B and C) Glo-melt thermal shift assays reveal 4456dh destabilizes 6xHis-CaTps1 (B) and 6xHis-CnTps1 (C). The first derivative of the raw data was used to determine the melting temperature of 1 µM 6xHis-CaTps1 (B) and 1 µM 6xHis-CnTps1 (C) treated without (black) or with 2 mM 4456dh (red). […] The resulting dose-response curves were fitted to a one-site binding model to extract Kd values; the SD was calculated using the Kd values from each independent experiment (n = 3). (F) Tps1 enzyme activity assay with 5 µM 6xHis-CaTps1 (F) and 6xHis-CnTps1 (G) ±1 mM 4456dh. Error bars represent SE. […]
The ability of 4456dh to inhibit the activity of CaTps1 was tested using a spectrophotometric-coupled Tps1 enzyme assay, in which recombinant 6xHis-CaTps1 was incubated with 1 mM 4456dh at 4°C for 16 hours. […] Similarly, the effect of 1 mM 4456dh on 6xHis-CnTps1 activity was determined. […]
as §1, §2, §3, §4, §5

Each structure is given as a SMILES string. Like-named read-outs stand apart in the source and are kept apart here.

Chain of 6xHis-CnTps1 (J9VJZ1 entry or part of it): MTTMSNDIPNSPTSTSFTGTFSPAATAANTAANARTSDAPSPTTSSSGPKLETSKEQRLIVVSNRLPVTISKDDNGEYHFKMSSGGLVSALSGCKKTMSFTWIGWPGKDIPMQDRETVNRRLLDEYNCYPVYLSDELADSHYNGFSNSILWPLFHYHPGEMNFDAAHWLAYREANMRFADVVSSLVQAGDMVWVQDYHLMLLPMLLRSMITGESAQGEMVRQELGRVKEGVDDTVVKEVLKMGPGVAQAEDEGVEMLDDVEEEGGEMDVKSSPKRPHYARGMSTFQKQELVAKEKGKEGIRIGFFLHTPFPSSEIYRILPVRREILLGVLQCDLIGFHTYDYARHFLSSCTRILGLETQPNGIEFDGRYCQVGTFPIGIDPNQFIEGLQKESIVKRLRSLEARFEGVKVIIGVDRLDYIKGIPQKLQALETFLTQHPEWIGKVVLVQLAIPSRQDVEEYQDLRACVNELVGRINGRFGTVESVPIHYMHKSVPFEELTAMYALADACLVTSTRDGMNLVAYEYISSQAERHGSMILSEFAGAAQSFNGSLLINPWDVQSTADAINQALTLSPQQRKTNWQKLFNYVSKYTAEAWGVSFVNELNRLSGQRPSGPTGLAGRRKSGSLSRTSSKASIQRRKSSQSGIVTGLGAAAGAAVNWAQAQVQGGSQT

By MIC80 is commonly meant an inhibitory concentration at the 80% level, which refers to growth in some studies and to a panel of isolates in others. Usually inhibition stands for the share of the control response that was lost under treatment. In the case of `Cn1cc(-c2csc(NC(=O)Cc3ccccn3)n2)cn1` [Compound 4456dh], the MIC80 entry against C. glabrata (CBS138) (30°C, YPD) is “no MIC or fungicidal activity was detected”; in the assay on C. glabrata (CBS138) (Nakaseomyces glabratus, CBS138, 42°C, YPD, 48 hours, read-out: MIC80) it was 7.8 µM; in the assay with C. glabrata (CBS138) (Nakaseomyces glabratus, CBS138, Supplemental Table 5, This publication, read-out: MIC80), 3.1 µg/mL. On 6xHis-CnTps1, this molecule displayed an inhibition at 1000 µM of approximately 30%.
